Data reported in patent US20020137929A1, “1 - (3-heterocyclylphenyl) isothiourea, -isourea, -guanidine and -amidine herbicidal agents” (Intellectual Property Department, BASF Aktiengesellschaft, priority 1998, published 2002).

Tests used:
[1] = system: ORYSAT (Rice, Tebonnet); test: Postemergence herbicidal evaluation; assay type: in vivo, Oryza sativa, (L.) Tebonnet; settings: postemergence
Outline: (§1)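 Visual 0-9 injury score (stand, vigor, malformation, size, chlorosis, appearance vs untreated) taken four to five weeks post-spray, averaged across repeat tests. Test plants about two weeks old; foliar spray of acetone/water (1:1) with 0.5% surfactant delivering ~0.0156-0.500 kg active/ha.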

[2] = system: ECHCG (Barnyardgrass); test: Preemergence herbicidal evaluation; assay type: in vivo, Echinochloa crus-galli; settings: rated 4-5 weeks after treatment
Outline: (§2)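 Visual 0-9 rating vs control (stand, vigor, malformation, size, chlorosis, overall appearance), scored 4-5 wk after spraying. Seeded soil cups were treated preemergence with compound in aqueous acetone, ~0.0156-0.500 kg/ha equivalent.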

[3] = system: SETVI (Foxtail, Green); test: Postemergence herbicidal evaluation; assay type: in vivo, Setaria viridis; settings: postemergence
Outline: as §1

[4] = system: CASOB (Sicklepod); test: Preemergence herbicidal evaluation; assay type: in vivo, Cassia obtusifolia; settings: rated 4-5 weeks after treatment
Outline: as §2

[5] = system: GLXMAW (Soybean, Williams); test: Preemergence herbicidal evaluation; assay type: in vivo, Glycine max, (L.) Merr. cv Williams; settings: rated 4-5 weeks after treatment
Outline: as §2

[6] = system: ABUTH (Velvetleaf); test: Preemergence herbicidal evaluation; assay type: in vivo, Abutilon theophrasti; settings: rated 4-5 weeks after treatment
Outline: as §2

[7] = system: CHEAL (Lambsquarters, Common); test: Postemergence herbicidal evaluation; assay type: in vivo, Chenopodium album; settings: postemergence
Outline: as §1

[8] = system: ABUTH (Velvetleaf); test: Postemergence herbicidal evaluation; assay type: in vivo, Abutilon theophrasti; settings: postemergence
Outline: as §1

[9] = system: ZEAMX (Corn, Field); test: Preemergence herbicidal evaluation; assay type: in vivo, Zea mays; settings: rated 4-5 weeks after treatment
Outline: as §2

[10] = system: ECHCG (Barnyardgrass); test: Postemergence herbicidal evaluation; assay type: in vivo, Echinochloa crus-galli; settings: postemergence
Outline: as §1

[11] = system: IPOHE (Morningglory, Ivyleaf); test: Preemergence herbicidal evaluation; assay type: in vivo, Ipomoea hederacea; settings: rated 4-5 weeks after treatment
Outline: as §2

[12] = system: TRZAWR (Wheat, Winter, cv Riband); test: Preemergence herbicidal evaluation; assay type: in vivo, Triticum aestivum; settings: rated 4-5 weeks after treatment
Outline: as §2

[13] = system: ZEAMX (Corn, Field); test: Postemergence herbicidal evaluation; assay type: in vivo, Zea mays; settings: postemergence
Outline: as §1

[14] = system: IPOHE (Morningglory, Ivyleaf); test: Postemergence herbicidal evaluation; assay type: in vivo, Ipomoea hederacea; settings: postemergence
Outline: as §1

[15] = system: CHEAL (Lambsquarters, Common); test: Preemergence herbicidal evaluation; assay type: in vivo, Chenopodium album; settings: rated 4-5 weeks after treatment
Outline: as §2

[16] = rate 0.0313 kg/ha, rating scale 0-9
[17] = rate 0.0625 kg/ha, rating scale 0-9
[18] = rate 0.1250 kg/ha, rating scale 0-9
[19] = rate 0.2500 kg/ha, rating scale 0-9

CCOC(=O)CN1C(=O)C(COC)SC1=Nc1cc(-n2c(=O)cc(C(F)(F)F)n(C)c2=O)c(F)cc1Cl (centres unmarked) [Compound 156, Ethyl 2-{{2-chloro-5-[3,6-dihydro-3-methyl-2,6-dioxo-4-(trifluoromethyl)-1(2H)-pyrimidinyl]-4-fluorophenyl}imino}-5-(methoxymethyl)-4-oxo-3-thiazolidine-acetate]
Herbicidal rating ORYSAT ([1]; rate 0.0156 kg/ha): 0.5
Herbicidal rating ORYSAT ([1]; rate 0.0313 kg/ha): 0.5
Herbicidal rating ORYSAT ([1]; rate 0.0625 kg/ha): 2.0
Preemergence herbicidal rating ECHCG [2, 16]: 0.0
Preemergence herbicidal rating ECHCG [2, 17]: 0.0
Preemergence herbicidal rating ECHCG [2, 18]: 0.0
Preemergence herbicidal rating ECHCG [2, 19]: 0.0
Herbicidal rating SETVI ([3]; rate 0.0156 kg/ha): 0.0
Herbicidal rating SETVI ([3]; rate 0.0313 kg/ha): 0.0
Herbicidal rating SETVI ([3]; rate 0.0625 kg/ha): 5.0
Preemergence herbicidal rating CASOB [4, 16]: 0.0
Preemergence herbicidal rating CASOB [4, 17]: 0.0
Preemergence herbicidal rating CASOB [4, 19]: 0.0
Preemergence herbicidal rating GLXMAW [5, 16]: 0.0
Preemergence herbicidal rating GLXMAW [5, 17]: 0.0
Preemergence herbicidal rating GLXMAW [5, 18]: 0.0
Preemergence herbicidal rating GLXMAW [5, 19]: 7.0
Preemergence herbicidal rating ABUTH [6, 16]: 4.0
Preemergence herbicidal rating ABUTH [6, 17]: 9.0
Preemergence herbicidal rating ABUTH [6, 18]: 9.0
Preemergence herbicidal rating ABUTH [6, 19]: 9.0
Herbicidal rating CHEAL ([7]; rate 0.0156 kg/ha): 9.0
Herbicidal rating CHEAL ([7]; rate 0.0313 kg/ha): 9.0
Herbicidal rating CHEAL ([7]; rate 0.0625 kg/ha): 9.0
Herbicidal rating ABUTH ([8]; rate 0.0156 kg/ha): 9.0
Herbicidal rating ABUTH ([8]; rate 0.0313 kg/ha): 9.0
Herbicidal rating ABUTH ([8]; rate 0.0625 kg/ha): 9.0
Preemergence herbicidal rating ZEAMX [9, 16]: 0.0
Preemergence herbicidal rating ZEAMX [9, 17]: 1.0
Preemergence herbicidal rating ZEAMX [9, 18]: 2.0
Preemergence herbicidal rating ZEAMX [9, 19]: 5.0
Herbicidal rating ECHCG ([10]; rate 0.0156 kg/ha): 0.0
Herbicidal rating ECHCG ([10]; rate 0.0313 kg/ha): 0.0
Herbicidal rating ECHCG ([10]; rate 0.0625 kg/ha): 0.0
Preemergence herbicidal rating IPOHE [11, 16]: 0.0
Preemergence herbicidal rating IPOHE [11, 17]: 3.0
Preemergence herbicidal rating IPOHE [11, 18]: 9.0
Preemergence herbicidal rating IPOHE [11, 19]: 9.0
Preemergence herbicidal rating TRZAWR [12, 16]: 0.0
Preemergence herbicidal rating TRZAWR [12, 17]: 0.0
Preemergence herbicidal rating TRZAWR [12, 18]: 0.0
Preemergence herbicidal rating TRZAWR [12, 19]: 3.0
Herbicidal rating ZEAMX ([13]; rate 0.0156 kg/ha): 4.5
Herbicidal rating ZEAMX ([13]; rate 0.0313 kg/ha): 4.5
Herbicidal rating ZEAMX ([13]; rate 0.0625 kg/ha): 4.5
Herbicidal rating IPOHE ([14]; rate 0.0156 kg/ha): 9.0
Herbicidal rating IPOHE ([14]; rate 0.0313 kg/ha): 9.0
Herbicidal rating IPOHE ([14]; rate 0.0625 kg/ha): 9.0
Preemergence herbicidal rating CHEAL [15, 16]: 9.0
Preemergence herbicidal rating CHEAL [15, 17]: 9.0
Preemergence herbicidal rating CHEAL [15, 18]: 9.0
Preemergence herbicidal rating CHEAL [15, 19]: 9.0

CCN1C(=O)CSC1=Nc1cc(-n2c(=O)cc(C(F)(F)F)n(C)c2=O)c(F)cc1Cl [Compound 159, 3-{4-Chloro-5-[(3-ethyl-4-oxo-2-thiazolidinyl-idene)amino]-2-fluorophenyl}-1-methyl-6-(trifluoromethyl)-2,4(1H,3H)-pyrimidinedione]
Herbicidal rating ORYSAT ([1]; rate 0.0156 kg/ha): 1.5
Herbicidal rating ORYSAT ([1]; rate 0.0313 kg/ha): 2.0
Herbicidal rating ORYSAT ([1]; rate 0.0625 kg/ha): 2.0
Preemergence herbicidal rating ECHCG ([2]; 0.0156 kg/ha): 0.0
Preemergence herbicidal rating ECHCG ([2]; 0.0313 kg/ha): 1.0
Preemergence herbicidal rating ECHCG ([2]; 0.0625 kg/ha): 0.0
Preemergence herbicidal rating ECHCG ([2]; 0.1250 kg/ha): 2.0
Preemergence herbicidal rating ECHCG ([2]; 0.2500 kg/ha): 3.0
Herbicidal rating SETVI ([3]; rate 0.0156 kg/ha): 1.0
Herbicidal rating SETVI ([3]; rate 0.0313 kg/ha): 2.0
Herbicidal rating SETVI ([3]; rate 0.0625 kg/ha): 7.0
Preemergence herbicidal rating CASOB ([4]; 0.0156 kg/ha): 0.0
Preemergence herbicidal rating CASOB ([4]; 0.0313 kg/ha): 1.0
Preemergence herbicidal rating CASOB ([4]; 0.0625 kg/ha): 3.0
Preemergence herbicidal rating CASOB ([4]; 0.1250 kg/ha): 3.0
Preemergence herbicidal rating CASOB ([4]; 0.2500 kg/ha): 7.0
Preemergence herbicidal rating GLXMAW ([5]; 0.0156 kg/ha): 1.0
Preemergence herbicidal rating GLXMAW ([5]; 0.0313 kg/ha): 0.0
Preemergence herbicidal rating GLXMAW ([5]; 0.0625 kg/ha): 1.0
Preemergence herbicidal rating GLXMAW ([5]; 0.1250 kg/ha): 2.0
Preemergence herbicidal rating GLXMAW ([5]; 0.2500 kg/ha): 3.0
Preemergence herbicidal rating ABUTH ([6]; 0.0156 kg/ha): 2.0
Preemergence herbicidal rating ABUTH ([6]; 0.0313 kg/ha): 9.0
Preemergence herbicidal rating ABUTH ([6]; 0.0625 kg/ha): 9.0
Preemergence herbicidal rating ABUTH ([6]; 0.1250 kg/ha): 9.0
Preemergence herbicidal rating ABUTH ([6]; 0.2500 kg/ha): 9.0
Herbicidal rating CHEAL ([7]; rate 0.0156 kg/ha): 3.0
Herbicidal rating CHEAL ([7]; rate 0.0313 kg/ha): 4.0
Herbicidal rating CHEAL ([7]; rate 0.0625 kg/ha): 5.0
Herbicidal rating ABUTH ([8]; rate 0.0156 kg/ha): 9.0
Herbicidal rating ABUTH ([8]; rate 0.0313 kg/ha): 9.0
Herbicidal rating ABUTH ([8]; rate 0.0625 kg/ha): 9.0
Preemergence herbicidal rating ZEAMX ([9]; 0.0156 kg/ha): 0.0
Preemergence herbicidal rating ZEAMX ([9]; 0.0313 kg/ha): 0.0
Preemergence herbicidal rating ZEAMX ([9]; 0.0625 kg/ha): 1.0
Preemergence herbicidal rating ZEAMX ([9]; 0.1250 kg/ha): 2.0
Preemergence herbicidal rating ZEAMX ([9]; 0.2500 kg/ha): 7.0
Herbicidal rating ECHCG ([10]; rate 0.0156 kg/ha): 2.0
Herbicidal rating ECHCG ([10]; rate 0.0313 kg/ha): 3.0
Herbicidal rating ECHCG ([10]; rate 0.0625 kg/ha): 3.0
Preemergence herbicidal rating IPOHE ([11]; 0.0156 kg/ha): 0.0
Preemergence herbicidal rating IPOHE ([11]; 0.0313 kg/ha): 2.0
Preemergence herbicidal rating IPOHE ([11]; 0.0625 kg/ha): 9.0
Preemergence herbicidal rating IPOHE ([11]; 0.1250 kg/ha): 7.0
Preemergence herbicidal rating IPOHE ([11]; 0.2500 kg/ha): 9.0
Preemergence herbicidal rating TRZAWR ([12]; 0.0156 kg/ha): 0.0
Preemergence herbicidal rating TRZAWR ([12]; 0.0313 kg/ha): 0.0
Preemergence herbicidal rating TRZAWR ([12]; 0.0625 kg/ha): 0.0
Preemergence herbicidal rating TRZAWR ([12]; 0.1250 kg/ha): 1.0
Preemergence herbicidal rating TRZAWR ([12]; 0.2500 kg/ha): 3.0
Herbicidal rating ZEAMX ([13]; rate 0.0156 kg/ha): 5.0
Herbicidal rating ZEAMX ([13]; rate 0.0313 kg/ha): 6.5
Herbicidal rating ZEAMX ([13]; rate 0.0625 kg/ha): 7.0
Herbicidal rating IPOHE ([14]; rate 0.0156 kg/ha): 9.0
Herbicidal rating IPOHE ([14]; rate 0.0313 kg/ha): 9.0
Herbicidal rating IPOHE ([14]; rate 0.0625 kg/ha): 9.0
Preemergence herbicidal rating CHEAL ([15]; 0.0156 kg/ha): 7.0
Preemergence herbicidal rating CHEAL ([15]; 0.0313 kg/ha): 9.0
Preemergence herbicidal rating CHEAL ([15]; 0.0625 kg/ha): 8.0
Preemergence herbicidal rating CHEAL ([15]; 0.1250 kg/ha): 9.0
Preemergence herbicidal rating CHEAL ([15]; 0.2500 kg/ha): 9.0
